Read-outs that look alike come from different tables or passages of the source. Each block holds one molecule with its values, some of them ahead of it.
How the values were obtained:
[1] = Particle size distribution (PSD) analysis; type: physicochemical
Experimental: Particle size distribution analysis was carried out using a particle size analyzer with a dispersion cell. Approximately 50 mg of sample was weighed into a 20 mL scintillation vial and 10 mL of dispersant was added. The sample was sonicated for 30 seconds, aspirated with a glass pipette, and then added to the dispersion unit. The sample was circulated for 30 seconds to allow the dispersion to stabilize.

[2] = Pharmacokinetic analysis: oral dosing to mice, BT-11 in plasma and colonic tissue by LC/MS/MS; settings: for Colon BT-11 Concentration / Plasma BT-11 Cmax: oral; for Colon BT-11 Concentration: colon 4 hours post-dose
Experimental: BT-11 Form 0, Form 1, and Form 2 were orally dosed to male and female mice (n=4) to provide 8 mg/kg. Plasma was collected at 1, 2, and 4 hours post-dose. At 4 hours post-dose, colons were excised and washed in PBS. Tissues were then homogenized by Fast-Prep24 instrument. Plasma and tissue homogenate were prepared by acetonitrile-based liquid-liquid extraction. BT-11 concentrations were determined by LC/MS/MS analysis using a linear calibration curve.

[3] = Dynamic vapor sorption (DVS); type: physicochemical; settings: for re-crystallization or form change during the DVS experiment: DVS kinetic plot
Experimental: Approximately, 10 mg of sample was placed into a mesh vapor sorption balance pan and loaded into a DVS-1/DVS Intrinsic/DVS Advantage dynamic vapor sorption balance by Surface Measurement Systems. The sample was subjected to a ramping profile from 40-90% relative humidity (RH) at 10% increments, maintaining the sample at each step until a stable weight had been achieved (dm/dt 0.004%, minimum step length 30 min, maximum step length 500 min) at 25° C. After completion of the sorption cycle, the sample was dried using the same procedure to 0% RH and then a second sorption cycle back to 40% RH. Two cycles were performed. The weight change during the sorption/desorption cycles were plotted, allowing for the hygroscopic nature of the sample to be determined. XRPD analysis was then carried out on any solid retained.

[4] = Solid form change on drying, followed by XRPD; type: physicochemical
Experimental: XRPD analysis was carried out, scanning the samples between 3 and 35° 2θ. The material was gently ground to release any agglomerates and loaded onto a multi-well plate with polymer film to support the sample. The multi-well plate was then placed into the diffractometer and analyzed using Cu K radiation (α1λ=1.54060 Å; α2=1.54443 Å; β=1.39225 Å; α1:α2 ratio=0.5) running in transmission mode (step size 0.0130° 2θ, step time 18.87 s) using 40 kV/40 mA generator settings. Data were visualized and analyzed.

[5] = system: CD25/STAT5 signaling and late-stage glycolysis; settings: murine cells; cited from earlier work
[6] = system: CD25/STAT5 signaling and late-stage glycolysis; settings: human cells; cited from earlier work
[7] = system: TNFα production in the gastrointestinal tract, fecal calprotectin; settings: mice; cited from earlier work
[8] = cited from earlier work
[9] = DVS, 25° C., listed as BT-11 Form 1
[10] = mice, 8 mg/kg, plasma collected at 1, 2 and 4 hours post-dose
[11] = DVS, 25° C., listed as BT-11 Form 2
[12] = DVS, 25° C., listed as BT-11 Form 3

Structure (SMILES): O=C(c1cccc(-c2nc3ccccc3[nH]2)n1)N1CCN(C(=O)c2cccc(-c3nc4ccccc4[nH]3)n2)CC1 [Form 0, piperazine-1,4-diylbis((6-(1H-benzo[d]imidazo-2-yl)pyridine-2-yl)methanone)]
- d10 [1]: 0.2 μm
- d50 [1]: 6.3 μm
- d90 [1]: 19.8 μm
- Cmax ([2]; both, mouse, plasma, po, 8 mg/kg, Plasma BT-11 Cmax, mice, plasma collected at 1, 2 and 4 hours post-dose): 186 ng/mL
- Colon BT-11 Concentration ([2]; mice, 8 mg/kg): 1280 ng/g

Structure (SMILES): Cl.Cl.O=C(c1cccc(-c2nc3ccccc3[nH]2)n1)N1CCN(C(=O)c2cccc(-c3nc4ccccc4[nH]3)n2)CC1 [Form 1, piperazine-1,4-diylbis((6-(1H-benzo[d]imidazo-2-yl)pyridine-2-yl)methanone)]
- d10 ([1]; listed as BT-11 Form 1): 0.1 μm
- d50 ([1]; listed as BT-11 Form 1): 0.5 μm
- d90 ([1]; listed as BT-11 Form 1): 40.8 μm
- re-crystallization or form change during the DVS experiment ([3]; listed as BT-11 Form 1): no evidence of re-crystallization or form change
- hygroscopic nature [3, 9]: hygroscopic
- total mass increase up to 90% RH [3, 9]: 24%
- total mass lost below 20% RH [3, 9]: 6.0%
- Colon BT-11 Concentration ([2]; mice, 8 mg/kg): 3000 ng/g
- Plasma BT-11 Cmax [2, 10]: 177 ng/mL

Structure (SMILES): Cl.Cl.O=C(c1cccc(-c2nc3ccccc3[nH]2)n1)N1CCN(C(=O)c2cccc(-c3nc4ccccc4[nH]3)n2)CC1 [Form 2, piperazine-1,4-diylbis((6-(1H-benzo[d]imidazo-2-yl)pyridine-2-yl)methanone)]
- d10 ([1]; listed as BT-11 Form 2): 18.2 μm
- d50 ([1]; listed as BT-11 Form 2): 31.9 μm
- d90 ([1]; listed as BT-11 Form 2): 83.9 μm
- re-crystallization or form change during the DVS experiment ([3]; listed as BT-11 Form 2): no evidence of re-crystallization or form change
- mass uptake on 2nd cycle ([3]; DVS, 25° C., 2nd cycle): 0.23%
- hygroscopic nature [3, 11]: slightly hygroscopic
- total mass increase up to 90% RH [3, 11]: 0.32%
- Colon BT-11 Concentration ([2]; mice, 8 mg/kg): 4470 ng/g
- Plasma BT-11 Cmax [2, 10]: 41 ng/mL
- confinement to the gastrointestinal tract after oral administration ([2]; mouse, in vivo, po): increased confinement to the gastrointestinal tract

Structure (SMILES): O=C(c1cccc(-c2nc3ccccc3[nH]2)n1)N1CCN(C(=O)c2cccc(-c3nc4ccccc4[nH]3)n2)CC1 [piperazine-1,4-diylbis((6-(1H-benzo[d]imidazo-2-yl)pyridine-2-yl)methanone)]
- CD25/STAT5 signaling and late-stage glycolysis [5]: induces changes
- CD25/STAT5 signaling and late-stage glycolysis [6]: induces changes
- fecal calprotectin levels [7]: reduces
- local TNFα production in the gastrointestinal tract [7]: reduces
- systemic absorption when orally administered [8]: poorly systemically absorbed

Continued, in another order:

- total moisture uptake due to surface moisture ([3]; DVS, 25° C.): 2.8%
- total mass increase up to 90% RH [3, 12]: 7.8%
- total mass lost below 20% RH [3, 12]: 5.0%
Structure (SMILES): Cl.Cl.O=C(c1cccc(-c2nc3ccccc3[nH]2)n1)N1CCN(C(=O)c2cccc(-c3nc4ccccc4[nH]3)n2)CC1 [Form 3, piperazine-1,4-diylbis((6-(1H-benzo[d]imidazo-2-yl)pyridine-2-yl)methanone)]
- re-crystallization or form change during the DVS experiment ([3]; listed as BT-11 Form 3): No evidence of re-crystallization or form change

- form change post-drying [4]: convert to Form 2
Structure (SMILES): Cl.Cl.O=C(c1cccc(-c2nc3ccccc3[nH]2)n1)N1CCN(C(=O)c2cccc(-c3nc4ccccc4[nH]3)n2)CC1 [Form 7, piperazine-1,4-diylbis((6-(1H-benzo[d]imidazo-2-yl)pyridine-2-yl)methanone)]

From US11492342B2, “Crystalline forms of piperazine-1,4-diylbis((6-(1H-benzo[d]imidazo-2-yl)pyridin-2yl)methanone)” (Landos Biopharma, Inc., priority 2020, dated 2022)
